The values below come from patent US7981926B2, “Fluorotaxoids” (Research Foundation of State University of New York, priority 2005, dated 2011).

As usually defined, the IC50 is the concentration needed to halve the response being measured. One may read the melting point as the temperature, or range, at which the solid turns liquid.

Each structure is given as a SMILES string. Where two headings read alike, the source gives them in different places.

The test system of data set [1] is MCF7 (mammary carcinoma). Kind of data set: Tumor growth inhibitory activity (cytotoxicity), SRB method of Skehan et al, MCF7. Format: cell-based, human. Conditions: Homo sapiens, read-out: IC50 MCF7 (breast). The source says:
(§1) The results were obtained according to the methods of Skehan et al (See Skehan et al., J. Nat. Cancer Inst., 82, 1107 (1990)), as more fully described in the Examples. The resistance factor (R/S) shown in the table is a measure of the degree of resistance of a cell line against a taxoid compound. The resistance factor is a ratio of the cytoxicity of a taxoid compound against a drug-resistant cell line (R) as compared to its cytoxicity against a drug-sensitive cell line (S).
(§2) In the tables, lower numbers indicate higher potency (or greater activity). Paclitaxel was used as the standard for comparison. The data represent the mean values of at least three separate experiments.
(§3) Assessment of cell growth inhibition was determined according to the methods of Skehan et al (See Skehan et al., J. Nat. Cancer Inst., 82, 1107 (1990)). Briefly, cells were plated between 400 and 1200 cells/well in 96 well plates and incubated at 37° C. for 15-18 h prior to drug addition to allow attachment of cells. Compounds tested were solubilized in 100% DMSO and further diluted in RPMI-1640 containing 10 mM HEPES. Each cell line was treated with 10 concentrations of compounds (5 log range). After a 72 h incubation, 100 μL of ice-cold 50% TCA was added to each well and incubated for 1 h at 4° C. Plates were then washed 5 times with tap water to remove TCA, low-molecular-weight metabolites and serum proteins. Sulforhodamine B (SRB) (0.4%, 50 μL) was added to each well. Following a 5 minute incubation at room temperature, plates were rinsed 5 times with 0.1% acetic acid and air dried. Bound dye was solubilized with 10 mM Tris Base (pH 10.5) for 5 min on a gyratory shaker. Optical density was measured at 570 nm.
(§4) Data were fit with the Sigmoid-Emax concentration-effect model with non-linear regression, weighted by the reciprocal of the square of the predicted response (see Holford, N. H. G.; Scheiner, L. B., “Understanding the dose-effect relationship: Clinical applications of pharmaco-kinetic-pharmacodynamic models,” Clin. Pharmacokin., 6, 429-453 (1981)). The fitting software was developed by the Roswell Park Cancer Institute with Microsoft FORTRAN, and uses the Marquardt algorithm (see Marquardt, D. W., “An algorithm for least squares estimation of nonlinear parameters,” J. Soc. Ind. Appl. Math., 11, 431-441 (1963)) as adopted by Nash for the non-linear regression (see Nash, J. C., “Compact numerical method for computers: Linear algebra and function minimization,” John Wiley & Sons, New York, 1979).

The test system of data set [2] is MCF7-R (mammary carcinoma cells 250-fold resistant to paclitaxel). Kind of data set: Tumor growth inhibitory activity (cytotoxicity), SRB method of Skehan et al, MCF7-R. Conditions: for IC50: Homo sapiens, MCF7R, read-out: IC50 MCF7-R (breast); for R/S (resistance factor): ratio of cytotoxicity against drug-resistant MCF7-R (R) to drug-sensitive MCF7 (S). The format is cell-based, human.
From the text: as §1, §2, §3, §4
On the technique in general: The SRB assay estimates cell density from bound dye.

Setting [3] is: MCF7, 72 h drug exposure, SRB, mean of at least three separate experiments.
Where [4] appears, read: drug-resistant cell line, 72 h drug exposure, SRB, mean of at least three separate experiments.

As for `CC(=O)O[C@H]1C(=O)[C@@]2(C)C([C@H](OC(=O)c3ccccc3)[C@]3(O)C[C@H](OC(=O)[C@H](O)[C@H](C=C(F)F)NC(=O)OC(C)(C)C)C(C)=C1C3(C)C)[C@]1(OC(C)=O)CO[C@@H]1C[C@@H]2O` (stereo partly shown) [SB-T-12851, 10-Acetyl-3′-dephenyl-3′-(2,2-difluorovinyl)docetaxel], the melting point is 155 to 160 °C. The IC50 in data set [1] (setting [3]) was 99 pM. The IC50 in data set [2] (setting [4]) was 950 pM. Moreover, in data set [2], the “R/S (resistance factor)” value came to 9.6.

In turn, `CCC(=O)O[C@H]1C(=O)[C@@]2(C)C([C@H](OC(=O)c3ccccc3)[C@]3(O)C[C@H](OC(=O)[C@H](O)[C@H](C=C(F)F)NC(=O)OC(C)(C)C)C(C)=C1C3(C)C)[C@]1(OC(C)=O)CO[C@@H]1C[C@@H]2O` (stereo partly shown) [SB-T-12853, 3′-Dephenyl-3′-(2,2-difluorovinyl)-10-propanoyl-docetaxel] returned a melting point of 175 to 181 °C. The IC50 in data set [1] (setting [3]) worked out at 120 pM. Further, the IC50 in data set [2] (setting [4]) is 1200 pM. Moreover, the “R/S (resistance factor)” value in data set [2] was 10.

With `CC(=O)O[C@@]12CO[C@@H]1C[C@H](O)[C@@]1(C)C(=O)[C@H](OC(=O)N(C)C)C3=C(C)[C@@H](OC(=O)[C@H](O)[C@H](C=C(F)F)NC(=O)OC(C)(C)C)C[C@@](O)([C@@H](OC(=O)c4ccccc4)C12)C3(C)C` (stereo partly shown) [SB-T-12854, 3′-Dephenyl-3′-(2,2-difluorovinyl)-10-dimethylcarbamoyldocetaxel], the melting point is 166 to 170 °C. In data set [1] (MCF7, 72 h), the IC50 worked out at 130 pM. The IC50 in data set [2] (72 h) stood at 4270 pM. In data set [2], the “R/S (resistance factor)” value is 33.

`COC(=O)O[C@H]1C(=O)[C@@]2(C)C([C@H](OC(=O)c3ccccc3)[C@]3(O)C[C@H](OC(=O)[C@H](O)[C@H](C=C(F)F)NC(=O)OC(C)(C)C)C(C)=C1C3(C)C)[C@]1(OC(C)=O)CO[C@@H]1C[C@@H]2O` (stereo partly shown) [SB-T-12855, 3′-Dephenyl-3′-(2,2-difluorovinyl)-10-methoxycarbonyldocetaxel] displayed a melting point of 144 to 148 °C. Also, the IC50 in data set [1] (setting [3]) turned out to be 140 pM. Besides, the IC50 in data set [2] (setting [4]) came to 1290 pM. For the same molecule, the “R/S (resistance factor)” value in data set [2] came to 9.2.
